Read-outs that look alike come from different tables or passages of the source. Values belong to the compound of their own block, whether it stands above or below them.
Experiments:
HepG2 cells = assay: HepG2 cytotoxicity, MTT, 72 hours (Examples 93-95); assay type: cell-based; conditions: for MEC (minimum effective concentration that significantly crosses vehicle threshold) / AC50: Cell Loss; for AC50: Homo sapiens, HepG2, read-out: AC50 (concentration at which 50% maximum effect is observed)
Description: Methodology for Examples 93-95
A number of analogues were tested for their ability to kill cancer cells.
HepG2 cells were plated on 96-well tissue culture treated polystyrene plates at 0.5×10^4 cells in 100 μL per well. After 24 hr the cells are dosed with test compound at a range of concentrations and incubated for 72 hours. One hour prior to the end of the incubation period, the cells are loaded with MU [yellow; 3-(4,5-dimethyl-2-thiazolyl)-2,5-diphenyl-2H-tetrazolium bromide], the plates are dried and re-solubilised using DMSO. The plates are then scanned using SpectraFluor Plus (TECAN).
Cytotoxicity was assessed using MU. The assay provides a measurement of mitochondrial dehydrogenase activity and cell loss.
A decrease can indicate a loss of cells indicating toxicity due to necrosis, apoptosis or a reduction in cellular proliferation.
A decrease can also indicate an effect on mitochondrial function as mitochondrial dehydrogenasesreduce the MTT [yellow; 3-(4,5-dimethyl-2-thiazolyl)-2,5-diphenyl-2H-tetrazolium bromide] to formazan. The formazan is detected in this assay.
The cells were dosed at concentrations of 0.04, 0.1, 0.4, 1, 4, 10, 40 and 100 μM. The assay was repeated three times at each concentration.
AC50=The concentration at which 50% maximum effect is observed for each cell health parameter.
The cells were dosed at concentrations of 0.02, 0.05, 0.2, 0.5, 2, 5, 20 and 50 μM. The assay was repeated three times at each concentration.
The cells were dosed at concentrations of 0.04, 0.1, 0.4, 1, 4, 10, 40 and 100 μM for bexarotene and the compound of formula 102 when Z is CH═NOH (compound 13a). The cells were dosed at concentrations of 0.02, 0.05, 0.2, 0.5, 2, 5, 20 and 50 μM for the compound of formula 102 when Z is CH═NOMe (compound 13b). The assay was repeated three times at each concentration.

[1] = system: PathHunter NHRPro cell lines; assay: PathHunter NHRPro cell assay, antagonist format (Examples 90-92); assay type: cell-based; conditions: for Emax: read-out: Max Response; for IC50: read-out: RC50 (IC50)
Description: Methodology for Examples 90-92 Cell Handling
PathHunter NHRPro cell lines were expanded from freezer stocks in T25 flasks according to standard procedures and maintained in selective growth media prior to assay.
Once it was established that the cells were healthy and growing normally, cells were passaged from flasks using cell dissociation reagent and seeded into white walled clear bottom 384-well microplates for compound profiling.
For profiling, cells were seeded at a density of 10000 cells per well in a total volume of 20 μL and were allowed to adhere and recover overnight prior to compound addition. Media contained charcoal-dextran filtered serum to reduce the level of hormones present.
Agonist dose curves were performed the morning of profiling to determine the EC80 value for the following antagonist testing with compounds. 5 μL of 5× agonist was added to each well with an equal concentration of vehicle present.
EC80 agonist concentration was determined directly from agonist dose curve.
For antagonist determination, cells were pre-incubated with antagonist followed by agonist challenge at the EC80 concentration.
5 μL of 5× compound added to cells and incubated at 37° C. for 30 minutes.
5 μL of 6× EC80 agonist added to cells and incubated at 37° C. for 90 minutes (180 minutes for EDG2 and EDG8).
After appropriate compound incubation, assay signal was generated through a single addition of 15 μL (50% v/v) of PathHunter Detection reagent cocktail for agonist and antagonist assays respectively followed by one hour incubation at room temperature.
Microplates were read following signal generation with a PerkinElmer Envision™ instrument for chemiluminescent signal detection.
Dose curves in the presence and absence of compound were plotted using GraphPad Prism or Activity Base.

recombinant human MAO-B = target: T1, recombinant human MAO-B (Homo sapiens, UniProt P27338); assay: MAO-B inhibition, kynuramine substrate, LC-MS/MS of 4-hydroxyquinoline (Example 99); assay type: biochemical; conditions: for remaining activity at 0.001 µM: 0.001 μM test compound; for remaining activity at 0.001 µM / remaining activity at 0.01 µM / remaining activity at 0.04 µM / remaining activity at 0.1 µM / remaining activity at 0.4 µM / remaining activity at 1 µM / remaining activity at 10 µM: kynuramine 25 μM, read-out: Mean % Activity Remaining (n = 2); for remaining activity at 0.01 µM: 0.010 μM test compound; for remaining activity at 0.04 µM: 0.04 μM test compound; for remaining activity at 0.1 µM: 0.1 μM test compound; for remaining activity at 0.4 µM: 0.4 μM test compound; for remaining activity at 1 µM: 1 μM test compound; for remaining activity at 10 µM: 10 μM test compound; for IC50: MAO-B, substrate kynuramine 25 μM
T1 sequence (P27338 1-520): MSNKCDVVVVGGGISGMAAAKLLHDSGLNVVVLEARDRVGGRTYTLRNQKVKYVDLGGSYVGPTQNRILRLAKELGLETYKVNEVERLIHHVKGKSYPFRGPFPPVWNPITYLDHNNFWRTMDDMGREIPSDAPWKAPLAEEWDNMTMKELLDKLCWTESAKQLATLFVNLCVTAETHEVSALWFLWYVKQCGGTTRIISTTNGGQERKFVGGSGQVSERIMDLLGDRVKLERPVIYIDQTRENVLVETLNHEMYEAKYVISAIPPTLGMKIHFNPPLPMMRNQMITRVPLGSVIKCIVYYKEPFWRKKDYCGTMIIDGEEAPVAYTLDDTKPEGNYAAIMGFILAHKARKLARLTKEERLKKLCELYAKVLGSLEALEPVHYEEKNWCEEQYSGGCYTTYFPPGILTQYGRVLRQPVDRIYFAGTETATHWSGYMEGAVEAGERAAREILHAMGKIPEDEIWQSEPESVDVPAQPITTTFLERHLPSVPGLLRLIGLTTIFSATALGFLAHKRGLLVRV
Description: Eight test compound concentrations (0.001-10 μM; final DMSO concentration 0.5%) were incubated with recombinant human MAO-B (2 μg/mL) in the presence of the probe substrate kynuramine (25 μM) for 25 min at 37° C. Each test compound concentration was assessed in duplicate. […] The reactions were terminated by addition of methanol containing internal standard for analytical quantification. The quenched samples were incubated at 4° C. for 10 min and centrifuged at 4° C. for 10 min. The supernatant was removed and analysed by LC-MS/MS for the probe metabolite 4-hydroxyquinoline. Generic Cyprotex LC-MS/MS analytical conditions were used.
A decrease in the formation of the metabolite compared to vehicle control was used to calculate an IC50 value.

[2] = Example 95, dosed 0.04-100 μM (compound 13b 0.02-50 μM)

SMILES: Cn1c(CCCC(=O)O)nc2cc(N(CCCl)CCCl)ccc21 [Bendamustine, bendamustine, reference compound]
MEC (minimum effective concentration that significantly crosses vehicle threshold) (HepG2 cells; Example 93, dosed 0.04-100 μM): 40 µM | AC50 (HepG2 cells; Example 93, dosed 0.04-100 μM): 92300 nM

SMILES: C=C(c1ccc(C(=O)O)cc1)c1cc2c(cc1C)C(C)(C)CCC2(C)C [Bexarotene, bexarotene, reference compound]
MEC (minimum effective concentration that significantly crosses vehicle threshold) (HepG2 cells; [2]): 40 µM | AC50 (HepG2 cells; [2]): 44300 nM

SMILES: CCOc1nc2cccc(C(=O)O)c2n1Cc1ccc(-c2ccccc2-c2nnn[nH]2)cc1 [Candesartan]
Emax ([1]; AGTR1, Arrestin): 101% | IC50 ([1]; AGTR1, Arrestin): 9.87 nM

SMILES: CCCCc1nc(Cl)c(C=NO)n1Cc1ccc(-c2ccccc2-c2nn[nH]n2)cc1 [Compound 4a, 1-((2′-(2H-Tetrazol-5-yl)-[1,1′-biphenyl]-4-yl)methyl)-2-butyl-4-chloro-1H-imidazole-5-carbaldehyde oxime]
Emax ([1]; AGTR1, Arrestin): 96.7% | IC50 ([1]; AGTR1, Arrestin): 109 nM

SMILES: CCCCc1nc(Cl)c(C=NOC)n1Cc1ccc(-c2ccccc2-c2nn[nH]n2)cc1 [Compound 4b, 1-((2′-(2H-Tetrazol-5-yl)-[1′,1′-biphenyl]-4-yl)methyl)-2-butyl-4-chloro-1H-imidazole-5-carbaldehyde O-methyl oxime]
Emax ([1]; AGTR1, Arrestin): 97.4% | IC50 ([1]; AGTR1, Arrestin): 248 nM

SMILES: Cn1c(CCCC=O)nc2cc(N(CCCl)CCCl)ccc21 [Compound 6a, 4-(5-(Bis(2-chloroethyl)amino)-1-methyl-1H-benzo[d]imidazol-2-yl)butanal]
MEC (minimum effective concentration that significantly crosses vehicle threshold) (HepG2 cells; Example 93, dosed 0.04-100 μM): 4 µM | Activity in HepG2 cell assay (in words) (HepG2 cells; Example 93, 0.04-100 μM, 72 hours): exhibited a higher activity than compound 6b | AC50 (HepG2 cells; Example 93, dosed 0.04-100 μM): 5830 nM

SMILES: Cn1c(CCCC=NO)nc2cc(N(CCCl)CCCl)ccc21 [Compound 6b, 4-(5-(Bis(2-chloroethyl)amino)-1-methyl-1H-benzo[d]imidazol-2-yl)butanal oxime]
MEC (minimum effective concentration that significantly crosses vehicle threshold) (HepG2 cells; Example 93, dosed 0.04-100 μM): 10 µM | AC50 (HepG2 cells; Example 93, dosed 0.04-100 μM): 17300 nM

SMILES: C=C(c1ccc(C=NO)cc1)c1cc2c(cc1C)C(C)(C)CCC2(C)C [Compound 13a, 4-(1-(3,5,5,8,8-Pentamethyl-5,6,7,8-tetrahydronaphthalen-2-yl)vinyl)benzaldehyde oxime]
MEC (minimum effective concentration that significantly crosses vehicle threshold) (HepG2 cells; [2]): 40 µM | AC50 (HepG2 cells; [2]): 15800 nM

SMILES: C=C(c1ccc(C=NOC)cc1)c1cc2c(cc1C)C(C)(C)CCC2(C)C [Compound 13b, 4-(1-(3,5,5,8,8-Pentamethyl-5,6,7,8-tetrahydronaphthalen-2-yl)vinyl)benzaldehyde O-methyl oxime]
MEC (minimum effective concentration that significantly crosses vehicle threshold) (HepG2 cells; [2]): 50 µM | AC50 (HepG2 cells; [2]): 45600 nM

SMILES: Cc1ccc(F)cc1C(=O)Nc1ccc(C(=O)N2Cc3cccn3Cc3ccccc32)c(Cl)c1 [Lixivaptan, lixivaptan, reference compound]
Emax ([1]; AVPR2, Arrestin): 102% | IC50 ([1]; AVPR2, Arrestin): 1.28 nM

SMILES: CCCCc1nc(Cl)c(CO)n1Cc1ccc(-c2ccccc2-c2nn[nH]n2)cc1 [Losartan]
Emax ([1]; AGTR1, Arrestin): 98.6% | IC50 ([1]; AGTR1, Arrestin): 8.21 nM

SMILES: C[C@H](NCc1ccc(OCc2cccc(F)c2)cc1)C(N)=O [Safinamide, safinamide, reference compound]
remaining activity at 0.001 µM (recombinant human MAO-B): 101% | remaining activity at 0.01 µM (recombinant human MAO-B): 95% | remaining activity at 0.04 µM (recombinant human MAO-B): 79% | remaining activity at 0.1 µM (recombinant human MAO-B): 62% | remaining activity at 0.4 µM (recombinant human MAO-B): 31% | remaining activity at 1 µM (recombinant human MAO-B): 13% | remaining activity at 10 µM (recombinant human MAO-B): 2%

SMILES: CCCCC(=O)N(Cc1ccc(-c2ccccc2-c2nnn[nH]2)cc1)[C@H](C(=O)O)C(C)C [Valsartan]
Emax ([1]; AGTR1, Arrestin): 106% | IC50 ([1]; AGTR1, Arrestin): 1.7 nM

Further lines, with some results ahead:

IC50 ([1]; AGTR1, Arrestin): 46.5 nM
SMILES: CCOc1nc2cccc(C=NO)c2n1Cc1ccc(-c2ccccc2-c2nnn[nH]2)cc1 [Compound 10a, 1-((2′-(1H-Tetrazol-5-yl)-[1,1′-biphenyl]-4-yl)methyl)-2-ethoxy-1H-benzo[d]imidazole-7-carbaldehyde oxime]
Emax ([1]; AGTR1, Arrestin): 101%

IC50 ([1]; AGTR1, Arrestin): 48.8 nM
SMILES: CCOc1nc2cccc(C=NOC)c2n1Cc1ccc(-c2ccccc2-c2nnn[nH]2)cc1 [Compound 10b, 1-((2′-(1H-tetrazol-5-yl)-[1,1′-biphenyl]-4-yl)methyl)-2-ethoxy-1H-benzo[d]imidazole-7-carbaldehyde O-methyl oxime]
Emax ([1]; AGTR1, Arrestin): 98.8%

IC50 ([1]; AVPR2, Arrestin): 3.8 nM
SMILES: Cc1ccc(F)cc1C(=O)Nc1ccc(CN2Cc3cccn3Cc3ccccc32)c(Cl)c1 [Compound 15a, N-(4-((5H-Benzo[e]pyrrolo[1,2-a][1,4]diazepin-10(11H)-yl)methyl)-3-chlorophenyl)-5-fluoro-2-methylbenzamide]
Emax ([1]; AVPR2, Arrestin): 108%

IC50 ([1]; AVPR2, Arrestin): 2370 nM
SMILES: Cc1ccc(F)cc1CNc1ccc(C(=O)N2Cc3cccn3Cc3ccccc32)c(Cl)c1 [Compound 15b, (5H-Benzo[e]pyrrolo[1,2-a][1,4]diazepin-10(11H)-yl)(2-chloro-4-(5-fluoro-2-methylbenzylamino)phenyl)methanone]
Emax ([1]; AVPR2, Arrestin): 79.4%

remaining activity at 0.001 µM (recombinant human MAO-B): 90% | remaining activity at 0.01 µM (recombinant human MAO-B): 84% | remaining activity at 0.04 µM (recombinant human MAO-B): 73% | remaining activity at 0.1 µM (recombinant human MAO-B): 65% | remaining activity at 0.4 µM (recombinant human MAO-B): 50% | remaining activity at 1 µM (recombinant human MAO-B): 26% | remaining activity at 10 µM (recombinant human MAO-B): 4% | IC50 (recombinant human MAO-B): 246 nM
SMILES: C[C@@H](C=NO)NCc1ccc(OCc2cccc(F)c2)cc1 [Compound 31a, (S)-2-(4-(3-Fluorobenzyloxy)benzylamino)propanal oxime]

remaining activity at 0.001 µM (recombinant human MAO-B): 90% | remaining activity at 0.01 µM (recombinant human MAO-B): 75% | remaining activity at 0.04 µM (recombinant human MAO-B): 57% | remaining activity at 0.1 µM (recombinant human MAO-B): 34% | remaining activity at 0.4 µM (recombinant human MAO-B): 15% | remaining activity at 1 µM (recombinant human MAO-B): 6% | remaining activity at 10 µM (recombinant human MAO-B): 1% | IC50 (recombinant human MAO-B): 46 nM
SMILES: CON=C[C@H](C)NCc1ccc(OCc2cccc(F)c2)cc1 [Compound 31b, (S)-2-(4-(3-Fluorobenzyloxy)benzylamino)propanal O-methyl oxime]

— patent publication US8946224B2, “Substituted [1,2,4]triazolo[4,3-A]pyrazines for medicaments and pharmaceutical compositions” (Redx Pharma Limited, priority 2010, dated 2015)
